Experimental data published in article PMC6720259, “Phlorotannins with Potential Anti-Tyrosinase and Antioxidant Activity Isolated from the Marine Seaweed Ecklonia stolonifera” (Antioxidants, 2019).
Entries after “also recorded” stand apart in the source; their conditions may differ. Where two headings read alike, the source gives them in different places.

Legend:
IBMX-treated cells = system: IBMX-treated cells; parameters: method as in PMID 19361156; settings: cited from earlier work
[1] = ONOO− radical scavenging assay; settings: mean ± SD of triplicates
Protocol: ONOO^− scavenging activity was assessed by a modified version of Kooy’s method, which monitors the production of fluorescent rhodamine 123 from non-fluorescent DHR 123 in the presence of ONOO^−. L-Penicillamine was used as a positive control.

[2] = DPPH radical scavenging activity; settings: mean ± SD of triplicates
Protocol: DPPH radical scavenging activity was evaluated by the method described by Blois, 1958 [19] with slight modifications. L-Ascorbic acid was used as a positive control.

mushroom tyrosinase [3] = molecular target: T1, mushroom tyrosinase (Agaricus bisporus, UniProt C7FF04); experiment: Kinetic analysis of mushroom tyrosinase inhibition (Lineweaver-Burk and Dixon plots); assay type: biochemical; settings: for Ki: Dixon plot; for Type of inhibition, L-DOPA / Type of inhibition, L-Tyrosine: Lineweaver-Burk plot
T1 construct: purchased Sigma Aldrich
T1 sequence (C7FF04 1-392 limits assumed): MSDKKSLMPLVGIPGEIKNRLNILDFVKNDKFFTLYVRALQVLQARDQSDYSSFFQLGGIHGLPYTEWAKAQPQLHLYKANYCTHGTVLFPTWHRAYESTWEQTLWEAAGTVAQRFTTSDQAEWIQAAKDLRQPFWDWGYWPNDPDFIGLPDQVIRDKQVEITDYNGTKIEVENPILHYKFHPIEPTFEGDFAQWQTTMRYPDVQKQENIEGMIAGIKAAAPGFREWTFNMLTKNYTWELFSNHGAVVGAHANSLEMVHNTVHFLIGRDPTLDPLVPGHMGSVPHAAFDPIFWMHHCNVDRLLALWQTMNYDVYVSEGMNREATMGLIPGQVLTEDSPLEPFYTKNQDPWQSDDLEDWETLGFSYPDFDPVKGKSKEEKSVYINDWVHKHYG
Protocol: The inhibition mode and inhibition constant (Ki) for mushroom tyrosinase inhibition were calculated from the Lineweaver-Burk and Dixon plots. Kinetic parameters were obtained for various concentrations of the substrates (L-tyrosine and L-DOPA) and inhibitors (974-A, phlorofucofuroeckol-A and eckol). Graphs were generated with Sigma plot 12.0 (SPSS Inc., Chicago, IL, USA).

B16F10 melanoma cells [4] = experiment: Melanin content assay in α-MSH-stimulated cells; assay type: cell-based, mouse; settings: for Melanin content of α-MSH-stimulated B16F10 cells: 6.25-100 μM, α-MSH 3 μM, 24 h; for Inhibition of melanin content compared with arbutin (500 μM): compound at 100 μM, α-MSH-stimulated B16F10 cells
Protocol: The intracellular melanin content was determined according to a procedure described previously with minor modifications. Briefly, B16F10 cells were seeded in a 24-well plate at 1 × 10^4 cells/well and incubated for 24 h in DMEM containing 10% FBS. Cells were pretreated with various concentrations of 974-A, phlorofucofuroeckol-A, and eckol for 1 h, and then were stimulated with α-MSH (3 μM) for 24 h. The cells were washed with PBS, and were dissolved in 1 N NaOH containing 10% DMSO by being boiled at 80 °C for 30 min. The cell lysates were centrifuged at 14,000 rpm for 10 min, and the absorbance of the supernatant was measured at 405 nm on a microplate reader (Molecular Devices). The absorbance was normalized to the total protein content for the determination of the melanin content.

[5] = system: cellular tyrosinase of B16F10 cells; experiment: Cellular TYR activity assay (L-DOPA oxidase activity); assay type: cell-based, mouse; settings: for Cellular tyrosinase activity of α-MSH-stimulated B16F10 cells: 6.25-100 μM, α-MSH 3 μM, 24 h; for Inhibition of cellular tyrosinase compared with arbutin (500 μM): compound at 100 μM, α-MSH-stimulated B16F10 cells
Protocol: Cellular TYR activity was measured as L-DOPA oxidase activity by a previously described method with some modifications. Cells were seeded at 1 × 10^4 cells/well in a 24-well plate, incubated for 24 h and then stimulated with α-MSH (3 μM) in the presence or absence of 974-A, phlorofucofuroeckol-A, or eckol for 24 h. After treatment, the cells were washed with cold PBS and lysed with RIPA buffer. The cell lysates were centrifuged at 12,000 rpm for 10 min, and the supernatant was used as the cellular TYR solution. The reaction mixture, which contained 80 μL of the cell lysate and 20 μL of L-DOPA (20 mM), was incubated at 37 °C for 45 min. After the incubation, dopachrome formation was measured spectrophotometrically every 10 min for 45 min at 450 nm on a microplate reader (Molecular Devices). TYR activity was calculated as a percentage of the control.

[6] = ABTS•+ radical scavenging assay; settings: mean ± SD of triplicates
Source text: This assay assesses the ability of different substances to scavenge ABTS radical cations (ABTS^•+) in comparison with the positive control, Trolox. The method was developed by Re et al. 1999 [21].

[7] = system: tyrosinase, TRP-1, and TRP-2 expression in B16F10 cells; experiment: Western blot analysis of melanogenic enzymes; assay type: cell-based, mouse; settings: 12.5–50 μM, α-MSH-stimulated B16F10 cells
Protocol: B16F10 cells were stimulated with α-MSH in the presence or absence of compounds for the indicated times. The cells were then washed with ice-cold PBS and lysed with RIPA buffer on ice for 30 min. After centrifugation of the samples at 12,000× g for 20 min, the protein concentrations of the supernatants were determined. Aliquots of protein were resolved by sodium dodecyl sulfate-polyacrylamide gel electrophoresis (SDS-PAGE) and transferred onto a nitrocellulose membrane. The membrane was washed with Tris-buffered saline (TBS; 10 mM Tris-HCl, 150 mM NaCl, pH 7.5) supplemented with 0.05% Tween 20 (TBST), blocked with 5% skim milk (w/v) in TBST for 2 h and incubated for approximately 20 h with the primary antibodies. The immunoblots were then incubated with the appropriate secondary antibody coupled to horseradish peroxidase for 2 h, and protein levels were detected with an ECL detection kit. Densitometric analysis of data from at least three independent experiments was performed with a cooled CCD camera system and CS analyzer version 3.00 software. Fold-increases in protein expression were calculated versus normal controls. The experiments were repeated three times for each experimental condition.

mushroom tyrosinase [8] = molecular target: T1, mushroom tyrosinase; experiment: In vitro mushroom tyrosinase inhibitory assay (L-tyrosine and L-DOPA as substrates); assay type: biochemical; settings: for IC50: mean ± SD of triplicates
Protocol: Mushroom tyrosinase inhibitory activity was assessed by the method described by Kang et al. 2004 [17] with slight modifications.

B16F10 melanoma cells [9] = experiment: Cell viability (MTT) assay; assay type: cell-based, mouse; settings: 6.25, 12.5, 25, 50, and 100 μM, with or without α-MSH co-treatment
Protocol: B16F10 mouse melanoma cells were obtained from the American Type Culture Collection (Manassas, VA, USA). Cells were cultured at 37 °C in high-glucose DMEM supplemented with 10% FBS, 100 U/mL penicillin, and 100 μg/mL streptomycin in a humidified atmosphere containing 5% CO2. The MTT assay was used to determine the cytotoxicity of 974-A, phlorofucofuroeckol-A, and eckol according to previously described methods with slight modifications. Briefly, B16F10 cells were seeded in a 96-well plate at 1 × 10^4 cells/well and incubated for 24 h in DMEM supplemented with 10% FBS. […] After 24-h incubation of the samples, the FBS-free DMEM was suctioned, and the cells were treated with an MTT solution (100 μL at 0.5 mg/mL in phosphate-buffered saline (PBS)) and incubated for 2 h. The proportion of surviving cells was determined after the medium was replaced with 100 µL of DMSO. […] The absorbance was measured at 570 nm on a microplate reader (Molecular Devices, Sunnyvale, CA, USA).

tyrosinase = system: tyrosinase; parameters: method as in PMID 19490939; settings: at 50 μM; cited from earlier work
[10] = system: cellular melanin and tyrosinase; parameters: method as in earlier work; settings: previous study; cited from earlier work
melanin synthesis = system: melanin synthesis; parameters: method as in PMID 19490939; settings: at 250 μM; cited from earlier work
[11] = substrate L-DOPA, read-out: Ki Value, L-DOPA
[12] = substrate L-tyrosine, read-out: Ki Value, L-Tyrosine
[13] = substrate L-DOPA, read-out: IC50 Value, Mushroom Tyrosinase Inhibition, L-DOPA
[14] = substrate L-tyrosine, read-out: IC50 Value, Mushroom Tyrosinase Inhibition, L-Tyrosine
[15] = IC50 Value, Mushroom Tyrosinase Inhibition, L-DOPA, substrate L-DOPA
[16] = IC50 Value, Mushroom Tyrosinase Inhibition, L-Tyrosine, substrate L-tyrosine

IC50 [1]	IC50 [2]	IC50 [6]	Compound	Type of inhibition, L-DOPA (mushroom tyrosinase [3]; substrate L-DOPA)	Type of inhibition, L-Tyrosine (mushroom tyrosinase [3]; substrate L-tyrosine)	Melanin content of α-MSH-stimulated B16F10 cells (B16F10 melanoma cells [4])	Inhibition of melanin content compared with arbutin (500 μM) (B16F10 melanoma cells [4])	Cellular tyrosinase activity of α-MSH-stimulated B16F10 cells [5]	Inhibition of cellular tyrosinase compared with arbutin (500 μM) [5]	Expression of tyrosinase, TRP-1, and TRP-2 (Western blot) [7]	Cytotoxicity towards B16F10 melanoma cells (MTT) (B16F10 melanoma cells [9])	other results
			7-phloreckol [Compound 7-phloreckol]									Melanin content of IBMX-treated cells (IBMX-treated cells): significantly and dose-dependently reduced the melanin content
1.07 ± 0.21 µM			CC(C)(S)C(N)C(=O)O (stereo in doubt) [Penicillamine, L-penicillamine, reference compound]									
	0.69 ± 0.04 µM		O=C1O[C@H]([C@@H](O)CO)C(O)=C1O [Ascorbic acid, L-ascorbic acid, reference compound]									
0.26 ± 0.06 µM	0.92 ± 0.11 µM	6.29 ± 0.34 µM	Oc1cc(O)cc(Oc2c(O)cc(O)c3c2oc2cc(O)c4c(c23)Oc2c(O)cc(O)c(Oc3cc(O)cc(O)c3-c3c(O)cc(O)cc3Oc3c(O)cc(O)cc3Oc3c(O)cc(O)cc3O)c2O4)c1 [Compound 974-A, 974-A]	Competitive	Competitive	reduced the cellular melanin content	comparable to arbutin	reduced the cellular melanin content and tyrosinase activity	as active	downregulated the expression of melanogenesis enzymes; also recorded: dose-dependently attenuated the expression of tyrosinase, TRP-1, and TRP-2	none of them exhibited significant cytotoxicity up to 100 μM	Ki (mushroom tyrosinase [3]; [11]): 3.33 µM; Ki (mushroom tyrosinase [3]; [12]): 0.69 µM; IC50 (mushroom tyrosinase [8]; [13]): 3.56 ± 0.22 µM; IC50 (mushroom tyrosinase [8]; [14]): 1.57 ± 0.08 µM
			Oc1cc(O)cc(Oc2c(O)cc(O)c3c2Oc2c(O)cc(Oc4c(O)cc(Oc5c(O)cc(O)c6c5Oc5c(O)cc(O)cc5O6)cc4O)cc2O3)c1 [Dieckol]									Tyrosinase inhibitory activity (tyrosinase): 88.9%
1.72 ± 0.59 µM	> 100 µM	31.5 ± 1.68 µM	Oc1cc(O)cc(O)c1 [Phloroglucinol, phloroglucinol]									Inhibition of mushroom tyrosinase, either substrate (in words) (mushroom tyrosinase [8]; L-tyrosine and L-DOPA): No significant inhibition; IC50 (mushroom tyrosinase [8]; [13]): > 400 µM; IC50 (mushroom tyrosinase [8]; [14]): 251 ± 5.52 µM
		18.4 ± 0.7 µM	Cc1c(C)c2c(c(C)c1O)CCC(C)(C(=O)O)O2 (centres unmarked) [Trolox, reference compound]									
			CC1=C(/C=C/C(C)=C/C=C/C(C)=C/CO)C(C)(C)CCC1 [retinol]									Inhibition of melanin synthesis (melanin synthesis): 75.3%

Compound	IC50 [1]	IC50 [2]	IC50 [6]	Type of inhibition, L-DOPA (mushroom tyrosinase [3]; substrate L-DOPA)	Type of inhibition, L-Tyrosine (mushroom tyrosinase [3]; substrate L-tyrosine)	Melanin content of α-MSH-stimulated B16F10 cells (B16F10 melanoma cells [4])	Inhibition of melanin content compared with arbutin (500 μM) (B16F10 melanoma cells [4])	Cellular tyrosinase activity of α-MSH-stimulated B16F10 cells [5]	Inhibition of cellular tyrosinase compared with arbutin (500 μM) [5]	Expression of tyrosinase, TRP-1, and TRP-2 (Western blot) [7]	Cytotoxicity towards B16F10 melanoma cells (MTT) (B16F10 melanoma cells [9])	other results
Oc1cc(O)cc(Oc2c(O)cc(O)c3c2Oc2c(O)cc(O)cc2O3)c1 [Eckol, eckol]	0.73 ± 0.07 µM	1.63 ± 0.65 µM	5.01 ± 0.19 µM	Non-competitive	Non-competitive	reduced the cellular melanin content	more effective than arbutin	reduced the cellular melanin content and tyrosinase activity	as active	downregulated the expression of melanogenesis enzymes; also recorded: dose-dependently attenuated the expression of TYR, TRP-1, and TRP-2	none of them exhibited significant cytotoxicity up to 100 μM	Ki (mushroom tyrosinase [3]; [11]): 28.5 µM; Type of inhibition, L-DOPA (mushroom tyrosinase [3]; substrate L-DOPA, listed as eckol): non-competitive; Ki (mushroom tyrosinase [3]; [12]): 8.6 µM; Type of inhibition, L-Tyrosine (mushroom tyrosinase [3]; substrate L-tyrosine, listed as eckol): non-competitive; IC50 (mushroom tyrosinase [8]; [15]): 29.6 ± 0.48 µM; IC50 (mushroom tyrosinase [8]; [16]): 9.12 ± 0.36 µM; Melanin levels and tyrosinase at a cellular level [10]: dose-dependently reduce melanin levels and inhibit tyrosinase at a cellular level
Oc1cc(O)cc(Oc2c(O)cc(O)c3c2Oc2c(O)cc4oc5c(Oc6cc(O)cc(O)c6)c(O)cc(O)c5c4c2O3)c1 [Phlorofucofuroeckol-A, phlorofucofuroeckol-A]	0.85 ± 0.1 µM	1.92 ± 0.09 µM	12.9 ± 0.95 µM	Non-competitive	Non-competitive	reduced the cellular melanin content	comparable to arbutin	reduced the cellular melanin content and tyrosinase activity	more potent	downregulated the expression of melanogenesis enzymes; also recorded: dose-dependently attenuated the expression of TYR, TRP-1, and TRP-2	none of them exhibited significant cytotoxicity up to 100 μM	Ki (mushroom tyrosinase [3]; Ki Value, L-DOPA, substrate L-DOPA): 7.14 µM; Ki (mushroom tyrosinase [3]; Ki Value, L-Tyrosine, substrate L-tyrosine): 2.7 µM; Type of inhibition, L-DOPA (mushroom tyrosinase [3]; substrate L-DOPA, listed as phlorofucofuroeckol-A): non-competitive; Type of inhibition, L-Tyrosine (mushroom tyrosinase [3]; substrate L-tyrosine, listed as phlorofucofuroeckol-A): non-competitive; IC50 (mushroom tyrosinase [8]; [15]): 8.14 ± 0.29 µM; IC50 (mushroom tyrosinase [8]; [16]): 3.42 ± 0.01 µM
